Where two headings read alike, the source gives them in different places.

In one assay the test system is MDA-MB231 cells. Nature of the assay: In vitro assay 2: BCAT cellular assay, leucine in medium of MDA-MB231 cells. In kind it is cell-based. The settings on record: 24 hours incubation, leucine level in medium (LeuDH/diaphorase/resazurin readout), read-out: MDAMB-231 IC50. How it is done: (§1) In Vitro Assay 2: BCAT Cellular Assay
(§2) Levels of leucine were measured in medium of different tumor cell lines. The enzyme BOAT (Branched chain amino acid transferase) catalyzes the consumption of leucine.
(§3) Cells (U87-MG and MDA-MB231 from ATCC) were grown in Dulbecco's Modified Eagle Medium (DMEM) containing 10% fetal calf serum. They were harvested by trypsin and seeded into 96-well plates. Cells were incubated overnight at 37° C. in an atmosphere containing 5% carbon dioxide. The next day test compounds were added to each cell well. The final concentration of dimethylsulfoxide (DMSO) was 0.1% and DMSO controls were included. The plates were then placed in an incubator for 24 hours.
(§4) Leucine was measured in an enzymatic readout with leucine dehydrogenase (LeuDH) and diaphorase. Medium is deproteinized with perchloric acid. 30 μl of 1 M aqueous perchloric acid was added to each well and the plates were centrifuged.
In general terms: The colour change of resazurin is a common sign of viable cells or microbes.

The target in assay [1] is T1, recombinant human BCAT1 enzyme (Homo sapiens, UniProt P54687).
T1 construct: purchased ATGen (South Korea) ATGP1479
T1 sequence (P54687 1-386): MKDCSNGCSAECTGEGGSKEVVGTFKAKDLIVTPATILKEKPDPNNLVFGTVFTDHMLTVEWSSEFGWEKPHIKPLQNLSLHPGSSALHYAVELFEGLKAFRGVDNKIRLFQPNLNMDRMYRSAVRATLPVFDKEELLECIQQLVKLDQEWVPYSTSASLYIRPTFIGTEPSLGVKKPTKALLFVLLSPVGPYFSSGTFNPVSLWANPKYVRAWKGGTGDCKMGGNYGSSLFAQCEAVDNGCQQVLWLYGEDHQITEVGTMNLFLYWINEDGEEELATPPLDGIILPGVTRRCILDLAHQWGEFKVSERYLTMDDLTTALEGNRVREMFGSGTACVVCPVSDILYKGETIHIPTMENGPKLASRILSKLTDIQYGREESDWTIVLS
The assay is described as follows: In vitro assay 1a: BCAT1 biochemical assay (coupled LeuDH/NADH fluorescence readout). How it is done: (§5) In Vitro Assay 1a and 1b: BCAT1 and BCAT2 Biochemical Assay
(§6) BOAT (Branched chain amino acid transferase) catalyzes transamination of the branched chain amino acid leucine to α-ketoisocaproate (KIC). The BOAT enzymatic reaction was measured in a coupled readout with leucine dehydrogenase (LeuDH) which catalyzes the Nicotinamide adenine dinucleotide (NADH) dependent reduction of KIC to leucine. NADH consumption is measured by fluorescent readout.
(§7) The biochemical reactions were performed at 32° C. in 384-well plates using a reaction volume of 51 μl and the following assay buffer conditions: 50 mM HEPES (2-[4-(2-hydroxyethyl)piperazin-1-yl]ethanesulfonic acid) pH 8.0, 50 mM aqueous solution of ammonium sulfate, 1 mM ethylenediaminetetraacetic acid, 2 mM dithiothreitol, 0.01% bovine serum albumine, 0.005% Brij 35 detergent, 0.5 μM PLP (pyridoxalphosphate), 10 μM NADH, and 50 μM α-ketoglutarate), and 100 μM leucine. […] Test compounds were used in a concentration range between 0.005 and 30 μM. The final DMSO concentration was 2%.
(§8) The reaction was initiated by addition of substrates (Leucine, α-KG, NADH).

Assay [2] deals with T2, recombinant human BCAT2 enzyme (Homo sapiens, UniProt O15382).
T2 construct: purchased ATGen (South Korea) ATGP1523
T2 sequence (O15382 28-392): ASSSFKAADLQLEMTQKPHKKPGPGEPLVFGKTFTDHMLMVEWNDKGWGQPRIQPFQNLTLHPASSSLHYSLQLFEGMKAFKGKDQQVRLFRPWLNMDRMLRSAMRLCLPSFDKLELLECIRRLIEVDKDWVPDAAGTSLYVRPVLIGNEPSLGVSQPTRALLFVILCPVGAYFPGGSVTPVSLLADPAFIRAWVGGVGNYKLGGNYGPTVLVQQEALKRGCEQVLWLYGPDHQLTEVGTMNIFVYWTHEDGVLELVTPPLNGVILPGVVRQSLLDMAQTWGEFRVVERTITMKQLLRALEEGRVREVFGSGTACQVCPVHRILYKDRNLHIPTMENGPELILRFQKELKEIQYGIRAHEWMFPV
Nature of the assay: In vitro assay 1b: BCAT2 biochemical assay (coupled LeuDH/NADH fluorescence readout). On BCAT2 IC50 [M]: recombinant human BCAT2 0.75 nM. How it is done:
as §5, §6, §7, §8

The test system of a further assay is U87-MG cells. Nature of the assay: In vitro assay 2: BCAT cellular assay, leucine in medium of U87-MG cells. To be noted: 24 hours incubation, leucine level in medium (LeuDH/diaphorase/resazurin readout). In kind it is cell-based. The procedure:
as §1, §2, §3, §4

Where [3] appears, read: recombinant human BCAT1 […], 32° C., 100 μM leucine, 50 μM α-ketoglutarate, NADH fluorescence over 90 min, read-out: BCAT1 IC50.
Setting [4] is: recombinant human BCAT2 […], 32° C., 100 μM leucine, 50 μM α-ketoglutarate, NADH fluorescence over 90 min, read-out: BCAT2 IC50.

Regarding `COc1cc(Cl)c(Oc2ccccc2C)cc1-n1c(=O)cc(C(F)(F)F)[nH]c1=O` (racemic) [Example 27, 3-[4-Chloro-2-methoxy-5-(2-methylphenoxy)phenyl]-6-(trifluoromethyl)pyrimidine-2,4(1H,3H)-dione (rac)], the IC50 with MDA-MB231 cells was 20 µM; in the assay on MDA-MB231 cells (Homo sapiens, MDA-MB-231, 24 h), above 30 µM; in assay [1] (setting [3]) it was 4.38e-07 M; in assay [2] (setting [4]) it was 4.33e-06 M.

In the case of `Cc1ccccc1Oc1cc(-n2c(=O)cc(-c3ccccc3)[nH]c2=O)c(F)cc1C#N` [Example 49, 4-(2,6-Dioxo-4-phenyl-3,6-dihydropyrimidin-1(2H)-yl)-5-fluoro-2-(2-methylphenoxy)benzonitrile], the IC50 with MDA-MB231 cells (Homo sapiens, MDA-MB-231, 24 h) is above 30 µM; in assay [1] (setting [3]) it was 6.98e-07 M; in assay [2] (setting [4]) it was 4.93e-06 M.

As to `COc1cc(Cl)c(Oc2ccccc2C)cc1-n1c(=O)cc(C(F)F)[nH]c1=O` (racemic) [Example 28, 3-[4-Chloro-2-methoxy-5-(2-methylphenoxy)phenyl]-6-(difluoromethyl)pyrimidine-2,4(1H,3H)-dione (rac)], the IC50 came out at 2.8e-07 M in assay [1] (setting [3]); 3.5e-06 M in assay [2] (setting [4]); 6.2 µM in the assay with U87-MG cells (Homo sapiens, U-87 MG, 24 h).

On to `Cc1ccccc1Oc1cc(-n2c(=O)cc(C3CC3)[nH]c2=O)c(F)cc1C#N` [Example 72, 4-(4-Cyclopropyl-2,6-dioxo-3,6-dihydropyrimidin-1(2H)-yl)-5-fluoro-2-(2-methylphenoxy)benzonitrile], for which the IC50 in the assay with MDA-MB231 cells (Homo sapiens, MDA-MB-231, 24 h) is above 30 µM; in assay [1] (setting [3]) it was 2e-06 M; in assay [2] (setting [4]), 2.5e-05 M.

As for `COc1cc(Cl)c(Oc2ccccc2Cl)cc1-n1c(=O)cc(C(F)(F)F)[nH]c1=O` (racemic) [Example 50, 3-[4-Chloro-5-(2-chlorophenoxy)-2-methoxyphenyl]-6-(trifluoromethyl)pyrimidine-2,4(1H,3H)-dione (rac)], the IC50 was found to be 7.5e-07 M in assay [1] (setting [3]); 5e-06 M in assay [2] (setting [4]); 3.6 µM in the assay on U87-MG cells (Homo sapiens, U-87 MG, 24 h).

Turning to `Cc1cccc(C)c1Oc1cc(-n2c(=O)cc(C(F)(F)F)[nH]c2=O)ccc1C#N` [Example 48, 2-(2,6-Dimethylphenoxy)-4-[2,6-dioxo-4-(trifluoromethyl)-3,6-dihydropyrimidin-1 (2H)-yl]benzonitrile], the IC50 with MDA-MB231 cells (Homo sapiens, MDA-MB-231, 24 h) came out at 25 µM; in assay [1] (setting [3]), 6.97e-07 M; in assay [2] (setting [4]), 4.15e-06 M.

Regarding `Cc1cccc(N)c1Oc1cc(-n2c(=O)cc(C(F)(F)F)[nH]c2=O)c(F)cc1C#N` [Example 65, 2-(2-Amino-6-methylphenoxy)-4-[2,6-dioxo-4-(trifluoromethyl)-3,6-dihydropyrimidin-1(2H)-yl]-5-fluorobenzonitrile], the IC50 in the assay on MDA-MB231 cells (Homo sapiens, MDA-MB-231, 24 h) is above 30 µM; in assay [1] (setting [3]) it was 5e-07 M; in assay [2] (setting [4]), 5.5e-06 M.

As for `COc1cc(C#N)c(Oc2ccccc2C)cc1-n1c(=O)cc(C(F)(F)F)[nH]c1=O` (single isomer, unassigned) [Example 5, 4-[2,6-Dioxo-4-(trifluoromethyl)-3,6-dihydropyrimidin-1(2H)-yl]-5-methoxy-2-(2-methylphenoxy)benzonitrile (atrop 1)], the IC50 in assay [1] (BCAT1 IC50 [M]) was determined as 1.13e-07 M; in the assay with U87-MG cells (Homo sapiens, U-87 MG, 24 h), 6 µM.

With `Cc1ccccc1Oc1cc(-n2c(=O)cc(C(F)(F)F)[nH]c2=O)cnc1C#N` [Example 47, 5-[2,6-Dioxo-4-(trifluoromethyl)-3,6-dihydropyrimidin-1(2H)-yl]-3-(2-methylphenoxy)pyridine-2-carbonitrile], the IC50 in the assay on MDA-MB231 cells (Homo sapiens, MDA-MB-231, 24 h) is above 30 µM; in assay [1] (setting [3]), 6.5e-07 M; in assay [2] (setting [4]), 3.2e-06 M.

Turning to `Cc1ccccc1Oc1cc(-n2c(=O)cc(C(F)(F)F)[nH]c2=O)c(C)cc1C#N` (single isomer, unassigned) [Example 9, 4-[2,6-Dioxo-4-(trifluoromethyl)-3,6-dihydropyrimidin-1(2H)-yl]-5-methyl-2-(2-methylphenoxy)benzonitrile (atrop 2)], the concentration for half-maximal inhibition (IC50) in assay [1] (BCAT1 IC50 [M]) was determined as 8e-08 M; in assay [2] (BCAT2 IC50 [M]), 9e-07 M; in the assay on U87-MG cells, 1.5 µM.

In the case of `COc1cc(C#N)c(Oc2ccccc2C)cc1-n1c(=O)cc(Br)[nH]c1=O` (single isomer, unassigned) [Example 20, 4-[4-Bromo-2,6-dioxo-3,6-dihydropyrimidin-1(2H)-yl]-5-methoxy-2-(2-methylphenoxy)benzonitrile (atrop 1)], the IC50 in the assay with MDA-MB231 cells is 27 µM; in assay [1] (setting [3]), 2.35e-06 M; in assay [2] (setting [4]), 2.3e-05 M.

Consider `Cc1ccccc1Oc1cc(-n2c(=O)cc(C(F)(F)F)[nH]c2=O)c(C)cc1C#N` (single isomer, unassigned) [Example 8, 4-[2,6-Dioxo-4-(trifluoromethyl)-3,6-dihydropyrimidin-1 (2H)-yl]-5-methyl-2-(2-methylphenoxy)benzonitrile (atrop 1)], for which the IC50 in assay [1] (BCAT1 IC50 [M]) turned out to be 1.1e-06 M; in assay [2] (BCAT2 IC50 [M]) it was 9e-06 M; in the assay on U87-MG cells, 6 µM.

Consider `Cc1ccccc1Oc1cc(-n2c(=O)cc(C(F)(F)F)[nH]c2=O)c(C)cc1C#N` (racemic) [Example 7, 4-[2,6-Dioxo-4-(trifluoromethyl)-3,6-dihydropyrimidin-1(2H)-yl]-5-methyl-2-(2-methylphenoxy)benzonitrile (rac)], for which the IC50 in the assay on MDA-MB231 cells is above 30 µM; with MDA-MB231 cells (Homo sapiens, MDA-MB-231, 24 h), 30 µM; in assay [1] (BCAT1 IC50 [M]), 2.87e-07 M; in assay [2] (BCAT2 IC50 [M]) it was 1.8e-06 M.

Turning to `COc1cc(C#N)c(Oc2ccccc2C)cc1-n1c(=O)cc(-c2ccccc2)[nH]c1=O` (racemic) [Example 42, 4-(2,6-Dioxo-4-phenyl-3,6-dihydropyrimidin-1(2H)-yl)-5-methoxy-2-(2-methylphenoxy)benzonitrile (rac)], the IC50 in the assay on MDA-MB231 cells (Homo sapiens, MDA-MB-231, 24 h) is above 30 µM; in assay [1] (setting [3]), 7.25e-07 M; in assay [2] (setting [4]) it was 1e-05 M.

On to `COc1cc(C#N)c(Oc2ccccc2C)cc1-n1c(=O)cc(-c2ccc(C(F)(F)F)cc2)[nH]c1=O` (racemic) [Example 69, 4-{2,6-Dioxo-4-[4-(trifluoromethyl)phenyl]-3,6-dihydropyrimidin-1(2H)-yl}-5-methoxy-2-(2-methylphenoxy)benzonitrile (rac)], for which the IC50 in assay [1] (setting [3]) is 4.5e-06 M; with U87-MG cells (Homo sapiens, U-87 MG, 24 h), above 30 µM.

Take `COc1cc(C#N)c(Oc2ccccc2C)cc1-n1c(=O)cc(C(N)=O)[nH]c1=O` (racemic) [Example 73, 1-[4-Cyano-2-methoxy-5-(2-methylphenoxy)phenyl]-2,6-dioxo-1,2,3,6-tetrahydropyrimidine-4-carboxamide (rac)]: the IC50 in assay [1] (setting [3]) is 9e-07 M; in assay [2] (setting [4]) it was 5.9e-06 M; with U87-MG cells (Homo sapiens, U-87 MG, 24 h), above 30 µM.

For the molecule `COc1cc(C#N)c(Oc2ccccc2C)cc1-n1c(=O)cc(S(C)(=O)=O)[nH]c1=O` (racemic) [Example 79, 4-[4-(Methanesulfonyl)-2,6-dioxo-3,6-dihydropyrimidin-1(2H)-yl]-5-methoxy-2-(2-methylphenoxy)benzonitrile (rac)], the IC50 was above 30 µM with MDA-MB231 cells (Homo sapiens, MDA-MB-231, 24 h); 7e-07 M in assay [1] (setting [3]); 4e-06 M in assay [2] (setting [4]).

A word on the IC50: it is the concentration at which inhibition is half-maximal.

The record behind these values is patent publication US20220411381A1, “PYRIMIDINEDIONE DERIVATIVES” (Bayer Aktiengesellschaft, priority 2019, published 2022).
